Test results reported in article PMC8041284, “Tunable Methacrylamides for Covalent Ligand Directed Release Chemistry” (Journal of the American Chemical Society, 2021).

Key:
EGFR [1] = molecular target: T1, EGFR (Homo sapiens, UniProt P00533); test: Fluorescence intensity measurement of CoLDR turn-on probe; format: binding; design: EGFR kinase domain was a generous gift from Prof; Michael Eck; gift from Prof; conditions: 2 μM probe, 2 μM protein
Experimental: (§1) A 2 μM concentration of BTK, EGFR, or K-RAS^G12C was added to 2 μM 3k, 4b, or 5a, respectively. […] Each condition was done in triplicates in 20 mM Tris pH 8.0 and 50 mM NaCl for BTK and K-RAS^G12C and in 50 mM Tris pH 8.0 and 100 mM NaCl for EGFR at 32 °C. Fluorescent measurements were taken every 2 min for 2 h for BTK and EGFR and every 10 min for 15 h for K-RAS^G12C. At the end of the measurements, samples were injected directly into the LC/MS for labeling quantification. K-Ras^G12C was expressed and purified as previously described,[69] EGFR kinase domain was a generous gift from Prof. Michael Eck.
Target sequence in this assay (P00533 712-979 limits assumed): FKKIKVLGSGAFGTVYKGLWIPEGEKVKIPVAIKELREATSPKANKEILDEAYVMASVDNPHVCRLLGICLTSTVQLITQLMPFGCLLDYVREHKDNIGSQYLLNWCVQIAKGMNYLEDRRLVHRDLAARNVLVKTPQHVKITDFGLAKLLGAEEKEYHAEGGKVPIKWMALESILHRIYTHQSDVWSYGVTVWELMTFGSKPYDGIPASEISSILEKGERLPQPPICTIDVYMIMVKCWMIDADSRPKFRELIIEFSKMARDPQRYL

EGFR [2] = molecular target: T1, EGFR; test: In vitro kinase activity assay (Nanosyn); format: biochemical; conditions: EGFR kinase activity assay, 0.75 nM EGFR, 5 μM ATP
Target sequence in this assay (P00533 25-1210): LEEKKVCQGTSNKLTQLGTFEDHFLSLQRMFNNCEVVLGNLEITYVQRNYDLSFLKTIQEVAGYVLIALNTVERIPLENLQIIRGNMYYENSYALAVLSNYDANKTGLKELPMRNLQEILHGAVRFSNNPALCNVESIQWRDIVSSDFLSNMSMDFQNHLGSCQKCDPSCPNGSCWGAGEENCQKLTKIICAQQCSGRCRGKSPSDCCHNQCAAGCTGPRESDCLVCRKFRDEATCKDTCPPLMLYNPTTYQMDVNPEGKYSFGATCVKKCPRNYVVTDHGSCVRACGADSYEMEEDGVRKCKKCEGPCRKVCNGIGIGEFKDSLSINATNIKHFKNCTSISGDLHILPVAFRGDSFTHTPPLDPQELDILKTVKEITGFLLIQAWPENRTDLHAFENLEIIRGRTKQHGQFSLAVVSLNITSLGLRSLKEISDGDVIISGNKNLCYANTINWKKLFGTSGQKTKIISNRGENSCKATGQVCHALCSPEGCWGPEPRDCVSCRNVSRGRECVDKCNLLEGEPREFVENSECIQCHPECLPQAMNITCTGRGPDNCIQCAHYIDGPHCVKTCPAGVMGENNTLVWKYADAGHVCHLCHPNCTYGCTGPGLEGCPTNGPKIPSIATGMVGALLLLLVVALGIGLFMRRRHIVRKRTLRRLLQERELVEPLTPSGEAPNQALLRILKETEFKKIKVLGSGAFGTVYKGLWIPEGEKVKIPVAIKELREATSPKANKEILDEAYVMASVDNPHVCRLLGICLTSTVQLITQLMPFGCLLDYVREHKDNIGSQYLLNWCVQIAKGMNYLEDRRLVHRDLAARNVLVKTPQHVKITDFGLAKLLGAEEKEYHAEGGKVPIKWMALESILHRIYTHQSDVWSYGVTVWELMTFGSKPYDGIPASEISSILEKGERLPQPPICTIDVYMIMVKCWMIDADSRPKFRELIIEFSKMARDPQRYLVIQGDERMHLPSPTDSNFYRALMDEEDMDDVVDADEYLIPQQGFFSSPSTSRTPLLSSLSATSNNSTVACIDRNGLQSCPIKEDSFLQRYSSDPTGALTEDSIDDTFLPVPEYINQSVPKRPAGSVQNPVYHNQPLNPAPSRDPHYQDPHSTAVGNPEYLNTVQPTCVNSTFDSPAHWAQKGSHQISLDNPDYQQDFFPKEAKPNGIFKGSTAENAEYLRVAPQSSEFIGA

K-Ras^G12C = K-Ras^G12C (Homo sapiens, UniProt P01116, G12C); test: Fluorescence intensity measurement of CoLDR turn-on probe; format: binding; conditions: 2 μM probe, 2 μM protein
Experimental: as §1

IC50 (EGFR [2]) | Compound | released coumarin fluorescence with EGFR (EGFR [1]) | released coumarin fluorescence with K-RAS^G12C (K-Ras^G12C)
3.3 nM | C=C(COc1ccc2ccc(=O)oc2c1)C(=O)Nc1cc2c(Nc3ccc(F)c(Cl)c3)ncnc2cc1OC [4b] | significant increase in fluorescence intensity | 
 | C=C(COc1ccc2ccc(=O)oc2c1)C(=O)N1CCN(c2nc(=O)n(-c3c(C)ccnc3C(C)C)c3nc(-c4c(O)cccc4F)c(F)cc23)[C@@H](C)C1 [5a] |  | significant increase in fluorescence intensity
